# Assay results reported in US8133686B2 (Van Andel Research Institute, priority 2008, dated 2012).
# pIC50: −log10 of the molar value. Where two headings read alike, the source gives them in different places.
# Key:
# [1] = system: RCC cell lines; assay: cells; settings: Homo sapiens
# [2] = system: HUVEC and HLMVEC cells; assay: cells; settings: Homo sapiens
# [3] = system: A-498 xenografts; assay: A-498 xenograft model, intermittent sunitinib dosing (3 weeks on, 3 weeks off)
# [4] = system: SN12C xenografts; assay: SN12C xenograft model, intermittent sunitinib dosing (3 weeks on, 3 weeks off)
# [5] = 40 mg/kg, 3-weeks-on and 3-weeks-off
# [6] = preliminary studies (data not shown)
smiles,measurement,setting,value
"CCN(CC)CCNC(=O)c1c(C)[nH]c(/C=C2\C(=O)Nc3ccc(F)cc32)c1C [SU11248, sunitinib]",pIC50,"[1]; read-out: IC50 on proliferation of RCC cell lines, similar under both conditions: normal culture/complete medium and ligand-dependent/PDGF-only",5.00 to 5.40
same,pIC50,"[1]; read-out: IC50 on proliferation of RCC cells, complete medium",5.00 to 5.40
same,pIC50,"[1]; read-out: IC50 on proliferation of RCC cells, ligand-dependent condition",5.22 to 5.70
same,pIC50,[2]; read-out: IC50 on proliferation of endothelial cell lines,~8.00
same,pIC50,[2]; read-out: IC50 on proliferation of endothelial cells,~5.22
same,treated A-498 xenograft mice showing phenotypic resistance,[3]; [5],38%
same,treated A-498 xenograft mice showing phenotypic resistance (resistant/treated),[3]; [5],13/34
same,minimal required dosage to induce stable disease,[3]; [6],40 mg/kg
same,treated SN12C xenograft mice showing phenotypic resistance,"[4]; 80 mg/kg, 3-weeks-on and 3-weeks-off",33%
same,minimal required dosage to induce stable disease,[4]; [6],80 mg/kg
